The source made the active and inactive calls. No cut-off for these calls is given here.

Data set [1] can be described thus: (§1) Cytotoxicity against african green monkey Vero cells after 16 hrs by MTT assay. The class given is cell-based, Chlorocebus sabaeus. Conditions: chlorocebus sabaeus, Vero cells.
The nature of data set [2]: Selectivity index, CC50 for african green monkey Vero cells to EC50 for Measles virus hemagglutininin/F-mediated cell-cell fusion. Conditions: read-out: Ratio CC50/EC50. In kind it is toxicity, cell-based.
A further data set deals with Nipah virus. Briefly: Inhibition of Nipah virus-mediated cell fusion infected in african green monkey Vero cells assessed as reduction in virus-induced syncytium formation after 24 hrs relative to control. The class given is functional, organism-based. Conditions: Henipavirus nipahense.
Data set [3] has as its system Vero. The data set is described as §1. In kind it is cell-based, Chlorocebus sabaeus. Conditions: Chlorocebus sabaeus, Vero, 16 h.
Data set [4] relates to Vero. The class given is cell-based. Conditions: Measles morbillivirus, 10 to 200 uM.
Data set [5] deals with Vero. Briefly: Cytotoxicity against african green monkey Vero cells at 10 to 200 uM after 16 hrs by MTT assay. The class given is cell-based. Conditions: chlorocebus sabaeus. A general note: Formazan colour is commonly taken as a measure of viable cells.
Data set [6] addresses T1, Glycoprotein G (Henipavirus nipahense) (UniProt Q9IH62).
T1 sequence (whole entry): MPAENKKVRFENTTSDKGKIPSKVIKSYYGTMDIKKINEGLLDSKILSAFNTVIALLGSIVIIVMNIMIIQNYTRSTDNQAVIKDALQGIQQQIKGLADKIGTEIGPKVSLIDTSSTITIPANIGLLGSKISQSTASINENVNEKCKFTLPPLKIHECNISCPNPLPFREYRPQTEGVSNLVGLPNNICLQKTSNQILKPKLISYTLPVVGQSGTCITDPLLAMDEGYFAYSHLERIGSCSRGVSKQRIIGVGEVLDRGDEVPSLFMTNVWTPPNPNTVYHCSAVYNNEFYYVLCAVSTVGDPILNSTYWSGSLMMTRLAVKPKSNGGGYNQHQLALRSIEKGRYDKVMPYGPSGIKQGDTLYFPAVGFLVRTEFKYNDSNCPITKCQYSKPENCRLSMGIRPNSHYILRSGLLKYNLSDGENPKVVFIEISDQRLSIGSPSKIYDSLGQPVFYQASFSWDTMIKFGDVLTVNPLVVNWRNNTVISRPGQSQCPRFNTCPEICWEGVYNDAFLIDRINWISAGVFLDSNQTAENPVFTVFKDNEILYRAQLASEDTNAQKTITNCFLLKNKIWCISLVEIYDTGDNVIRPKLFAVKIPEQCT
The class given is cell-based. Conditions: Vero, 10 to 200 uM.

Another data set concerns the target T2, Glycoprotein G (Henipavirus nipahense, UniProt Q9IH62).
T2 sequence (Q9IH62 whole entry): T1 sequence (whole entry)
The class given is cell-based. Conditions: vero.

`C=CCN1[C@@H](c2ccc([N+](=O)[O-])cc2)C(C(=O)OCC)=C(O)C(C(=O)OCC)[C@@H]1c1ccc([N+](=O)[O-])cc1` (some centres not stated): the CC50 at 16 h in data set [1] was more than 20 µM.
On to `Nc1ccc2oc(Cc3ccccc3)nc2c1`, for which, in data set [2], the selectivity ratio amounted to 20. Besides, the Activity result in the data set on Nipah virus is “Dose-dependent effect”. For the same compound, the concentration for a half-maximal effect (EC50) in the data set on Vero [3] was 8 µM.
Turning to `CCn1cc(C(=O)NCc2ccc(OC)cc2)c(=O)c2cc(F)c(Cl)cc21`, the result (in the data set with Vero [4]; in data set [6]) was inactive. Besides, the Activity result in the data set on Vero [5] is listed as “Not Active”.
As for `CCn1cc(C(=O)NCC2CC2)c(=O)c2cc(C(F)(F)F)ccc21`, the result (with Vero [4]; in data set [6]) was inactive. In addition, the Activity result in the data set on Vero [5] is listed as “Not Active”.
In data set [1], `CCOC(=O)N1CCN(c2cc3c(cc2F)c(=O)c(C(=O)NCc2ccc(Cl)cc2Cl)cn3CC)CC1` gave a CC50 at 16 h of more than 20 µM.
For the compound `CCn1cc(C(=O)NCc2ccc(Cl)cc2)c(=O)c2ccc(C(F)(F)F)cc21`, the selectivity ratio in data set [2] is more than 10. This compound displayed a half-maximal cytotoxic concentration (CC50) at 16 h in data set [1] of more than 20 µM.
As to `NC(=O)C1CCN(c2cc3c(cc2F)c(=O)c(C(=O)NCc2ccc(Cl)cc2Cl)cn3C2CC2)CC1`, the Activity result in the data set with Nipah virus is “Dose-dependent effect”. The CC50 at 16 h in data set [1] was more than 20 µM.
As for `CCn1cc(C(=O)Nc2ccccc2CO)c(=O)c2ccc(C(F)(F)F)cc21`, the outcome (with Vero [4]; in data set [6]) was inactive. For the same compound, in the data set on Vero [5], the Activity result is “Not Active”.
With `CCn1cc(C(=O)NCc2ccccn2)c(=O)c2cc(F)ccc21`, the outcome (with Vero [4]; in data set [6]) was inactive. Further, in the data set with Vero [5], the Activity result is on record as “Not Active”.
As for `NC(=O)C1CCN(c2cc3c(cc2F)c(=O)c(C(=O)O)cn3C2CC2)CC1`, the outcome (in the data set on Vero [4]; in data set [6]) was inactive. Moreover, the Activity entry with Vero [5] is recorded as “Not Active”.
`CCn1cc(C(=O)NCc2ccc(N)cc2)c(=O)c2cc(C(F)(F)F)ccc21`: the result (in the data set on Vero [4]; in data set [6]) was inactive. The Activity result with Vero [5] is “Not Active”.
`CCn1cc(C(=O)Nc2ccc(F)c(Cl)c2)c(=O)c2ccc(C(F)(F)F)cc21`: in data set [1], the CC50 at 16 h was more than 20 µM. Moreover, the concentration giving a half-maximal response (EC50) result on Glycoprotein G is “Not Active”.
With `CCn1cc(C(=O)NCc2ccccn2)c(=O)c2cc(C(F)(F)F)ccc21`, the outcome (with Vero [4]; in data set [6]) was inactive. In addition, the Activity result in the data set with Vero [5] is recorded as “Not Active”.
In the case of `CCOC(=O)C1CCN(c2cc3c(cc2F)c(=O)c(C(=O)O)cn3CC)CC1`, the result (in the data set on Vero [4]; in data set [6]) was inactive. In addition, the Activity entry in the data set with Vero [5] is on record as “Not Active”.
With `CCn1cc(C(=O)NCC2CC2)c(=O)c2cc(F)ccc21`, the result (in the data set with Vero [4]; in data set [6]) was inactive. Further, in the data set on Vero [5], the Activity result is reported as “Not Active”.
For `CCOC(=O)C1CCN(c2cc3c(cc2F)c(=O)c(C(=O)NCc2ccc(Cl)cc2Cl)cn3CC)CC1`, the Activity result in the data set on Nipah virus is “Dose-dependent effect”. In addition, the cytotoxic concentration (CC50) at 16 h in data set [1] was 10 µM.
As for `CCn1cc(C(=O)NCc2ccc(OC)cc2)c(=O)c2cc(C(F)(F)F)ccc21`, the result (in the data set on Vero [4]; in data set [6]) was inactive. The Activity result with Vero [5] is on record as “Not Active”.
For the compound `CCn1cc(C(=O)NCc2ccc(N)cc2)c(=O)c2cc(F)ccc21`, the outcome (in the data set on Vero [4]; in data set [6]) was inactive. For the same compound, in the data set on Vero [5], the Activity result is reported as “Not Active”.
On to `CCOC(=O)N1CCN(c2cc3c(cc2F)c(=O)c(C(=O)NCc2ccc(Cl)cc2Cl)cn3C2CC2)CC1`, for which it took 15 µM to reach half-maximal cytotoxicity in data set [1] (CC50 at 16 h).

In general, CC50 refers to the concentration at which the toxic effect on the cells reaches its halfway point. As usually defined, the EC50 is the concentration at which the effect is half-maximal.

The values are drawn from ChEMBL document CHEMBL1158450, “A small-molecule inhibitor of Nipah virus envelope protein-mediated membrane fusion” (J Med Chem, 2009).
